Measurements taken from PubChem BioAssay (NCI).
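Step 1: Grow cells in 96-well plates. Step 2: Expose to compound for 48 hours at 5 concentrations. Step 3: Interpolate endpoints linearly; if unreached, use highest concentration. Here, GI50 denotes the concentration required for 50% inhibition of growth. TGI denotes the concentration required for complete inhibition of growth.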

How the values were obtained:
Test in all cases: NCI-60 cell line screen, 48 h
BT-549 breast = tested on: BT-549 breast
MALME-3M melanoma = tested on: MALME-3M melanoma
ACHN renal = tested on: ACHN renal
NCI-H226 lung = tested on: NCI-H226 lung
HCT-15 colon = tested on: HCT-15 colon
M14 melanoma = tested on: M14 melanoma
HOP-92 NSCLC = tested on: HOP-92 NSCLC
SK-MEL-28 melanoma = tested on: SK-MEL-28 melanoma
OVCAR-5 ovarian = tested on: OVCAR-5 ovarian
TK-10 renal = tested on: TK-10 renal

Structure (SMILES) | GI50 (BT-549 breast) [µM] | TGI (BT-549 breast) [µM] | GI50 (MALME-3M melanoma) [µM] | TGI (MALME-3M melanoma) [µM] | GI50 (ACHN renal) [µM] | TGI (ACHN renal) [µM] | GI50 (NCI-H226 lung) [µM] | TGI (NCI-H226 lung) [µM] | GI50 (HCT-15 colon) [µM] | TGI (HCT-15 colon) [µM] | GI50 (M14 melanoma) [µM] | TGI (M14 melanoma) [µM] | GI50 (HOP-92 NSCLC) [µM] | TGI (HOP-92 NSCLC) [µM] | GI50 (SK-MEL-28 melanoma) [µM] | TGI (SK-MEL-28 melanoma) [µM] | GI50 (OVCAR-5 ovarian) [µM] | TGI (OVCAR-5 ovarian) [µM] | GI50 (TK-10 renal) [µM] | TGI (TK-10 renal) [µM]
CCN(c1cc(C#CCN2CCOCC2)cc(C(=O)NCc2c(C)cc(C)[nH]c2=O)c1C)C1CCC(N(C)CCOC)CC1 (centres undefined) | > 100 | > 100 | > 100 | > 100 | > 100 | > 100 | > 100 | > 100 | > 100 | > 100 | > 100 | > 100 | > 100 | > 100 | > 100 | > 100 | > 100 | > 100 | > 100 | > 100
Cc1coc2c1C(OC(=O)C(C)C)C1(C)C(C)CCC(O)C1C2=O (centres undefined) | – | > 95 | – | > 100 | – | > 100 | – | > 100 | – | > 100 | – | > 100 | – | > 100 | – | > 100 | – | > 100 | – | > 100
O=C(CCCCC(=O)N/N=C\c1ccccc1O)N/N=C\c1ccccc1O | 32 | > 100 | – | – | 3.53 | > 100 | 3.12 | > 100 | 2.02 | > 100 | 3.39 | > 100 | 11.3 | > 100 | – | – | > 100 | > 100 | 6.4 | > 100
Oc1ccc(N=Nc2ccccn2)c(O)c1 | 0.628 | > 100 | 4.86 | > 100 | 0.507 | > 100 | 3.4 | 82.1 | 0.423 | > 100 | – | – | 2.09 | > 100 | 1.66 | > 100 | 2.23 | > 100 | 0.661 | > 100
O=Nc1c(-c2c(O)[nH]c3ccc(Br)cc23)[nH]c2ccccc12 | 4.57 | 20.2 | 21.8 | > 100 | 2.25 | 7.69 | 3.89 | 16.7 | 2.72 | 8.4 | – | – | 6.25 | 45.1 | 9.12 | > 100 | 5.14 | 16.9 | 3.77 | > 100
CS(=O)(=O)N(c1cc(-c2ccc3ncnc(Nc4cccc(Cl)c4)c3c2)cnc1Cl)S(C)(=O)=O | 0.318 | 3.03 | – | – | 0.412 | > 100 | 1.04 | 9.75 | 0.403 | 6.99 | 0.598 | 4.4 | 0.158 | 0.891 | 0.306 | 11.1 | 0.181 | 6.55 | 0.145 | 0.985
CC(=O)c1cc(O)c2ccccc2c1O | 20.1 | 37.2 | 18.2 | 34.2 | 16.9 | 32.5 | 17.5 | 33.2 | 20.5 | 44.1 | 19.7 | 36.7 | 16.6 | 31 | 22.9 | 44.5 | 23.7 | 43 | 17 | 33.1
Cn1cc(C2=C(N3CCOCC3)C(=O)NC2=O)c2ccccc21 | > 25 | > 25 | > 25 | > 25 | > 25 | > 25 | > 25 | > 25 | > 25 | > 25 | > 25 | > 25 | 14.7 | > 25 | > 25 | > 25 | > 25 | > 25 | > 25 | > 25
O=C(O)Cn1cc([N+](=O)[O-])c(=O)c2ccccc21 | – | > 100 | – | > 100 | – | > 100 | – | > 100 | – | > 100 | – | > 100 | – | – | – | > 100 | – | > 100 | – | > 100
O=C(O)C(Oc1nc(=S)[nH]c(=S)[nH]1)(c1ccc(Cl)cc1)c1ccc(Cl)cc1 | – | > 100 | – | > 100 | – | > 100 | – | > 100 | – | > 100 | – | > 100 | – | > 100 | – | > 100 | – | > 100 | – | > 100
Cc1ccc(Sc2cc3c(oc2=O)-c2ccccc2OC3O)cc1 (centres undefined) | 18.7 | 37.4 | 25 | 49.2 | 24.8 | 57.3 | 30 | 75 | 28.3 | 76.3 | 22.4 | 43.5 | 23.4 | 51.9 | 22.2 | 57.9 | 23.9 | 49 | 33.8 | 84.9
CCCCCCCCCCCCCCCC1=NC(C)(C)CN1C(C)C | 5.12 | 23.7 | 1.64 | 3.35 | 1.52 | 2.84 | 2.13 | 6.6 | 1.47 | 2.79 | 1.57 | 2.91 | 1.1 | 3.45 | 1.64 | 3 | 1.55 | 2.93 | 1.44 | 2.74
C/C(=N\NC(=S)N(C)C)c1ccccn1 | – | 9.59 | 0.00639 | – | 0.00151 | 1.74 | 0.0645 | 5.1 | 0.00191 | 16.6 | 0.00884 | 11.5 | – | 17.8 | – | 20.6 | – | 6.85 | 0.00279 | 10.7
CCN(CC)C(=S)[S][Bi]([S]C(=S)N(CC)CC)[S]C(=S)N(CC)CC | 0.203 | 0.384 | 0.168 | 0.317 | 0.226 | 0.488 | 2.07 | 4.18 | 0.164 | 0.348 | 0.218 | 0.485 | 0.136 | 0.276 | 0.218 | 0.492 | 0.539 | 1.07 | 0.197 | 0.374
